# Patent US20250333407A1, “Compounds and Their Use for Treatment of Hemoglobinopathies” (Bristol-Myers Squibb Company, priority 2024, published 2025)
# Assays:
# Format in all cases: cell-based
# HbF = HbF HiBiT induction assay in HUDEP-2 cells; conditions: HUDEP-2 cells with HiBiT tag in HBG1/2, 72 hours of treatment; area under the dose response curve, higher AUC = greater HbF induction
# Procedure: HbF HiBiT induction assay. The HiBiT induction assay for HbF in HUDEP-2 cells was performed as described below. HUDEP-2 cells engineered to express a HiBiT tag in HBG1/2 were maintained at a density of 0.1-1×10^6 cells/ml in StemSpan SFEM II supplemented with 1% penicillin/streptomycin, hSCF (50 ng/mL), erythropoietin (EPO; 3 IU/mL), dexamethasone (DEX; 0.4 μg/mL), and doxycycline hyclate (DOX; 1 μg/mL). The cells were cultured in low adherence flasks, in a humidified incubator, set at 37° C. with 5% CO2. Cell counts and viability were measured by trypan blue exclusion using the Vi-CELL XR cell viability analyzer and the cell growth was consistently maintained in log phase.
# Prior to the start of experiments, HbF HiBiT-tagged HUDEP-2 cells were transferred to a 50 mL conical and centrifuged at 500×g for 5 minutes, the supernatant removed, and the pellet washed in 5 mL of 1×PBS. The washed cells were centrifuged again at 500×g for 5 minutes and resuspended in IMDM containing; 1×glutamine, 1×penicillin/streptomycin, holo-transferrin (330 μg/mL), heparin (2 IU/mL), r-human insulin (10 μg/mL), EPO (3 IU/mL), 5% human plasma, hSCF (100 ng/mL) and DOX (1 μg/mL) to a final density of 0.3×10^6 cells/mL. Forty microliters of cell suspension were dispensed into 384-well Low Flange White Flat Bottom Polystyrene TC-treated Microplates containing pre-dispensed compounds, using a VIAFLO 384 liquid hander, and placed in a humidified incubator at 37° C. with 5% CO2. […] After 72 hours of treatment, 40 μL of Nano-Glo HiBiT Lytic Solution (prepared according to manufacturer's instructions) were dispensed into each well using a VIAFLO 384 liquid handler, and the plates were shaken for 20 seconds. Plates were incubated for 20 minutes at room temperature, and the luminescence was read as relative luminescent units using an EnVision plate reader.
# Dose response curves were generated, and EC50, Ymax, and then area under the curve (AUC) values were calculated. HbF induction was measured using the calculated area under the curve (AUC) value, with higher AUC values indicative of greater HbF induction relative to lower AUC values.
# ZBTB7A = biological target: T1, ZBTB7A (Homo sapiens, UniProt O95365+Q96SW2); assay: HUDEP-2 ZBTB7A HiBiT degradation assay; conditions: HiBiT-tagged ZBTB7A degradation in HUDEP-2 cells, 24 hours of treatment; read-out: ZBTB7A EC50
# T1 construct: HUDEP-2 cells engineered to express a HiBiT tag in either the WIZ (Widely interspaced zinc finger) or ZBTB7A
# Procedure: (§1) WIZ Assay and ZBTB7A EC50 Assays. The HiBiT degradation assays for WIZ and ZBTB7A in HUDEP-2 cells were performed as described below. HUDEP-2 cells engineered to express a HiBiT tag in either the WIZ (Widely interspaced zinc finger) or ZBTB7A (Zinc Finger And BTB Domain Containing 7A) proteins were maintained in low attachment flasks in StemSpan SFEM II media supplemented with Penicillin-Streptomycin (50 U/mL), rhSCF (50 ng/mL), rhEPO (3 IU/mL), dexamethasone (0.4 μg/mL) and doxycycline (1 μg/mL). Prior to start of the assay, cell count and viability were measured by trypan blue exclusion using the Vi-cell XR cell viability analyzer.
# For the HUDEP-2 ZBTB7A HiBiT assay, cell count and viability were measured by trypan blue exclusion using the Vi-cell XR cell viability analyzer and the cells were transferred to a 50 mL conical and centrifuged at 500 g for five minutes. Cells were resuspended in fresh IMDM media supplemented with L-Glutamine (1×), Penicillin-Streptomycin (50 U/mL), holo-transferrin (330 μg/mL), heparin (2 IU/mL), r-human Insulin (10 μg/mL), rhEPO (3 IU/mL), rhSCF (100 ng/mL)+Dox (1 μg/mL) and 5% human plasma in low attachment flasks, which were placed in a 37° C. incubator with 5% CO2. After 48 hours, cell count and viability were measured by trypan blue exclusion using the Vi-cell XR cell viability analyzer. The HUDEP-2 ZBTB7A cells were transferred to a 50 mL conical, centrifuged at 500 g for five minutes and resuspended at a density of 1.0×10^6 cells/ml in IMDM media supplemented with L-Glutamine (1×), Penicillin-Streptomycin (50 U/mL), holo-transferrin (330 μg/mL), heparin (2 IU/mL), r-human Insulin (10 μg/mL), rhEPO (3 IU/mL), rhSCF (100 ng/mL)+Dox (1 μg/mL) and 5% human plasma. Forty microliters of cell suspension was dispensed into 384-well Low Flange White Flat Bottom Polystyrene TC-treated Microplates containing pre-dispensed compounds, using a VIAFLO 384 liquid hander, and placed in a 37° C. incubator with 5% CO2. […] After 24 hours of treatment, 40 μL Nano-Glo HiBiT Lytic Detection System reagent was dispensed into each well using a VIAFLO 384 liquid hander. Plates were incubated for 25 minutes at room temperature and the luminescence was read as relative luminescent units using the EnVision plate reader. EC50 and Y-min values were calculated using curves calculated from dotmatics software after the normalization to the DMSO control of 10 different concentrations: 10, 3.33, 1.11, 0.37, 0.12, 0.04 0.0137, 0.0046, 0.0015 and […] respectively.
# WIZ = biological target: T2, WIZ (Homo sapiens, UniProt O95785+Q96SW2); assay: HUDEP-2 WIZ HiBiT degradation assay; conditions: HiBiT-tagged WIZ degradation in HUDEP-2 cells, 24 hours of treatment; read-out: WIZ EC50
# T2 construct: HUDEP-2 cells engineered to express a HiBiT tag in either the WIZ (Widely interspaced zinc finger) or ZBTB7A
# Procedure: as §1
# For the HUDEP-2 WIZ HiBiT assay, cells were transferred to a 50 mL conical and centrifuged at 500 g for five minutes. Cells were resuspended in fresh StemSpan SFEM II media supplemented with Penicillin-Streptomycin (50 U/mL), rhSCF (50 ng/mL), rhEPO (3 IU/mL), dexamethasone (0.4 μg/mL) and doxycycline (1 μg/mL) at a density of 1.0×10^6 cells/ml. Forty microliters of cell suspension was dispensed into 384-well Low Flange White Flat Bottom Polystyrene TC-treated Microplates containing pre-dispensed compounds, using a VIAFLO 384 liquid hander, and placed in a 37° C. incubator with 5% CO2. […] After 24 hours of treatment, 40 μL Nano-Glo HiBiT Lytic Detection System reagent was dispensed into each well using a VIAFLO 384 liquid hander. Plates were incubated for 25 minutes at room temperature and the luminescence was read as relative luminescent units using the EnVision plate reader. EC50 and Y-min values were calculated using curves calculated from dotmatics software after the normalization to the DMSO control of 10 different concentrations: 10, 3.33, 1.11, 0.37, 0.12, 0.04 0.0137, 0.0046, 0.0015 and […] respectively.
# T1 sequence (O95365 whole entry): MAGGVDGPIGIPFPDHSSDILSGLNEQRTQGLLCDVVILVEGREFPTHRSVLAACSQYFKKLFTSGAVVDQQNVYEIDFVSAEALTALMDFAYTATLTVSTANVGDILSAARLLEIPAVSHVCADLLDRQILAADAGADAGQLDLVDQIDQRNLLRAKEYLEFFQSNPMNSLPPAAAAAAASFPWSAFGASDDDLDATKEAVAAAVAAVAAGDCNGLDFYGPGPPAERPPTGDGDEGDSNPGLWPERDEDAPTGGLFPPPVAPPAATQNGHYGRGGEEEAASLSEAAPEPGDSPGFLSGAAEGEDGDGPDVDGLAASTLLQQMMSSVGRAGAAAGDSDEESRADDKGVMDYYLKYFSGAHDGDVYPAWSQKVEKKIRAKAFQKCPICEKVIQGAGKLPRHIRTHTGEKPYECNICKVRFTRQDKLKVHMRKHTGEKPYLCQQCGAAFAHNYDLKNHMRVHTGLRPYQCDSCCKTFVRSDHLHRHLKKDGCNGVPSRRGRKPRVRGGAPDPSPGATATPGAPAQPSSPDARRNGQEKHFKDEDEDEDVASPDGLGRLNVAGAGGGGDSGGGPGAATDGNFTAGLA
# T1 sequence (Q96SW2 whole entry): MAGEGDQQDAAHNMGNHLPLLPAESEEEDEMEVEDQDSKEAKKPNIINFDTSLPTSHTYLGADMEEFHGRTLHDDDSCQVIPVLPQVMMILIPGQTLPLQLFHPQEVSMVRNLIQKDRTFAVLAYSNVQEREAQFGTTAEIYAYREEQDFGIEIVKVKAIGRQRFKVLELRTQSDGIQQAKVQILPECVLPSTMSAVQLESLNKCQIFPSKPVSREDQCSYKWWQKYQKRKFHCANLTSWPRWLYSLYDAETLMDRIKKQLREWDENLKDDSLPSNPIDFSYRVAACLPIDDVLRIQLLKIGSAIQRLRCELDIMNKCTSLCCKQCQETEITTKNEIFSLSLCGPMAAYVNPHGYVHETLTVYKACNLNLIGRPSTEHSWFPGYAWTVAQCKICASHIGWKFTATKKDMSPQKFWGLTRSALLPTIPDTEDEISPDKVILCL
# T1 sequence (Q16531 whole entry partner): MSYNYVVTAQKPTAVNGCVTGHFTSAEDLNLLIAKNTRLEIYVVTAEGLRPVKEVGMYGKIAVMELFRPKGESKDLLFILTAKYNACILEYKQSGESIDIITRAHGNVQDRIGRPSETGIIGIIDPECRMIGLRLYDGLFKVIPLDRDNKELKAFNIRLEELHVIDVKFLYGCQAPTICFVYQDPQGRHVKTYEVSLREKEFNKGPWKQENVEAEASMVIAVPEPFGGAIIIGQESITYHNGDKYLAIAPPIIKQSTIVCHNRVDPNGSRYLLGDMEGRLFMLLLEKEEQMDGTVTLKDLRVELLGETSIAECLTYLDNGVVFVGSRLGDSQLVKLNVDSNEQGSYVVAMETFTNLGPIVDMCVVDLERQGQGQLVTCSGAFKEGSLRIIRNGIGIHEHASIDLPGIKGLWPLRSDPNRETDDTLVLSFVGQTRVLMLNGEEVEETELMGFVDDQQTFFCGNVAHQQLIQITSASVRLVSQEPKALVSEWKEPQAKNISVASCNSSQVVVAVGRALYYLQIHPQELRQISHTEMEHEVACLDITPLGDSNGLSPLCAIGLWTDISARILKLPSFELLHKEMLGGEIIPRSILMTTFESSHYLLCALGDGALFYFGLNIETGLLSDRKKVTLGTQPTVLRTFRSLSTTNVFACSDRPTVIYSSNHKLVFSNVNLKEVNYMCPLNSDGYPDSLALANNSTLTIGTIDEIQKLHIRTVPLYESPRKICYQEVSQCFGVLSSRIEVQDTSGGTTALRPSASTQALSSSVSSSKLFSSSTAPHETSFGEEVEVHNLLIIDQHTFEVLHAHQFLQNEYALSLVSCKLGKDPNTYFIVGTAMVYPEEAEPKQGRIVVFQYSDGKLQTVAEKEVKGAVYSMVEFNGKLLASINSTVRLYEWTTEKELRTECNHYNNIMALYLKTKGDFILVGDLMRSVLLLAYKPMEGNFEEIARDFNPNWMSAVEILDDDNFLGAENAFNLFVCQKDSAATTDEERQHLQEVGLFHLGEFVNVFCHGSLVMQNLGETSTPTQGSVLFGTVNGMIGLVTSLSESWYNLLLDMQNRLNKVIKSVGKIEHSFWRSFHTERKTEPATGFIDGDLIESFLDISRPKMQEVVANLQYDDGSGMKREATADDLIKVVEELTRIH
# T2 sequence (O95785 whole entry): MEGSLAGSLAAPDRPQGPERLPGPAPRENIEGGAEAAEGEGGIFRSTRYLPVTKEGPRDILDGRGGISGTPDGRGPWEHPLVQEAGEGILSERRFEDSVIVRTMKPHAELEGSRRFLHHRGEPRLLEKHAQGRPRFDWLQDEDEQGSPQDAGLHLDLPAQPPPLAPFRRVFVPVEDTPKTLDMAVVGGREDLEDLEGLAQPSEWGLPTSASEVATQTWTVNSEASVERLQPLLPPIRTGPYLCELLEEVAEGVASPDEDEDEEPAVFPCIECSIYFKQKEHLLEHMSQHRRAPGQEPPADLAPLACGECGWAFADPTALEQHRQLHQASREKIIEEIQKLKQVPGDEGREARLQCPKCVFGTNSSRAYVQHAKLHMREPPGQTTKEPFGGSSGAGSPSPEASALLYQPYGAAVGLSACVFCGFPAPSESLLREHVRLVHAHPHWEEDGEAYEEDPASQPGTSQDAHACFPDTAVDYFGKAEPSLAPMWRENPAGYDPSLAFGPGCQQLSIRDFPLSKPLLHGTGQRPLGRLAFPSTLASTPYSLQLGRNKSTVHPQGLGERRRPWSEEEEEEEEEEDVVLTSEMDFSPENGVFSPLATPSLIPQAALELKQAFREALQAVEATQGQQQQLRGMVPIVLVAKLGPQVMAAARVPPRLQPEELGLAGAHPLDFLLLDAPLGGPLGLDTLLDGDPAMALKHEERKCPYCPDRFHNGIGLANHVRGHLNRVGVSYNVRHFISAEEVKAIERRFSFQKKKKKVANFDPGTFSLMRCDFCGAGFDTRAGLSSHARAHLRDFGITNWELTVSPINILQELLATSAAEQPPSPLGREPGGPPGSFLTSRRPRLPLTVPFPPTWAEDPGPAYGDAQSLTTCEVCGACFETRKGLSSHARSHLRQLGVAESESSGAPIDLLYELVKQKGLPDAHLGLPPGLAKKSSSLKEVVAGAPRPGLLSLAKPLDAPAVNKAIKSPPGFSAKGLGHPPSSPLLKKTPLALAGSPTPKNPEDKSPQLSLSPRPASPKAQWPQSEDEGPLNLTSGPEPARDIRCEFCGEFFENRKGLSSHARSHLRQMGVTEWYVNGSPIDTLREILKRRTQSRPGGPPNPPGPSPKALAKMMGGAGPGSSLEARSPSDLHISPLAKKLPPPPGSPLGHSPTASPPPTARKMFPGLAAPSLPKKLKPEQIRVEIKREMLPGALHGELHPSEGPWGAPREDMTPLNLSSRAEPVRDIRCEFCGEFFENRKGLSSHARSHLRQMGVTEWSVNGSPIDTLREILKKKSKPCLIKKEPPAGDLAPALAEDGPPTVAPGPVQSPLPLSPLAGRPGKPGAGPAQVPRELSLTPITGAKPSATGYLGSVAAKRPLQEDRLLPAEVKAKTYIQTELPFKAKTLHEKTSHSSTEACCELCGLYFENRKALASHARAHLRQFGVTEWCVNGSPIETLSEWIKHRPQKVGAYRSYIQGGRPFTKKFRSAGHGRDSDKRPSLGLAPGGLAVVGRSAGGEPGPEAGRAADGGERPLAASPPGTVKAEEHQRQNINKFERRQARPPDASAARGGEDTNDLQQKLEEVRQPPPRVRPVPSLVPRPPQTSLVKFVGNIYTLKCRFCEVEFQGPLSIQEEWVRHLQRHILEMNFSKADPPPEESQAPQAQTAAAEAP
# T2 sequence (Q96SW2 whole entry): as the sequence (Q96SW2 whole entry) above
# T2 sequence (Q16531 whole entry partner): as the sequence (Q16531 whole entry partner) above
DC50 (ZBTB7A) [nM],DC50 (WIZ) [nM],SMILES,HBF AUC (HbF)
34,37,"Cc1cc(-c2cc3c(cc2Nc2cccc4c2C(=O)N([C@@H]2CCC(=O)NC2=O)C4=O)N(C)C(=O)OC3)ccn1 [Compound 12, (R)-2-(2,6-dioxopiperidin-3-yl)-4-((1-methyl-6-(2-methylpyridin-4-yl)-2-oxo-1,4-dihydro-2H-benzo[d][1,3]oxazin-7-yl)amino)isoindoline-1,3-dione]",+ (+ = 15 ≤ AUC < 100)
38,50,"Cc1cc(-c2cc3c(cc2Nc2cccc4c2C(=O)N(C2CCC(=O)NC2=O)C4=O)N(C)C(=O)CO3)cc(F)c1F (stereo not drawn) [Compound 13, 4-((7-(3,4-difluoro-5-methylphenyl)-4-methyl-3-oxo-3,4-dihydro-2H-benzo[b][1,4]oxazin-6-yl)amino)-2-(2,6-dioxopiperidin-3-yl)isoindoline-1,3-dione]",+ (+ = 15 ≤ AUC < 100)
17,12,"CNc1cc(-c2cc3c(cc2Nc2cccc4c2C(=O)N(C2CCC(=O)NC2=O)C4=O)N(C)C(=O)CO3)ccn1 (stereo not drawn) [Compound 14, 2-(2,6-dioxopiperidin-3-yl)-4-((4-methyl-7-(2-(methylamino)pyridin-4-yl)-3-oxo-3,4-dihydro-2H-benzo[b][1,4]oxazin-6-yl)amino)isoindoline-1,3-dione]",+ (+ = 15 ≤ AUC < 100)
22,7,"CN(C)c1cc(-c2cc3c(cc2Nc2cccc4c2C(=O)N(C2CCC(=O)NC2=O)C4=O)N(C)C(=O)CO3)ccn1 (stereo not drawn) [Compound 15, 4-((7-(2-(dimethylamino)pyridin-4-yl)-4-methyl-3-oxo-3,4-dihydro-2H-benzo[b][1,4]oxazin-6-yl)amino)-2-(2,6-dioxopiperidin-3-yl)isoindoline-1,3-dione]",+ (+ = 15 ≤ AUC < 100)
73,32,"CCOc1cc(-c2cc3c(cc2Nc2cccc4c2C(=O)N(C2CCC(=O)NC2=O)C4=O)N(C)C(=O)CO3)cc(C)n1 (stereo not drawn) [Compound 16, 2-(2,6-dioxopiperidin-3-yl)-4-((7-(2-ethoxy-6-methylpyridin-4-yl)-4-methyl-3-oxo-3,4-dihydro-2H-benzo[b][1,4]oxazin-6-yl)amino)isoindoline-1,3-dione]",+ (+ = 15 ≤ AUC < 100)
18,13,"COc1cc(-c2cc3c(cc2Nc2cccc4c2C(=O)N([C@H]2CCC(=O)NC2=O)C4=O)N(C)C(=O)CO3)ccn1 [Compound 17, (S)-2-(2,6-dioxopiperidin-3-yl)-4-((7-(2-methoxypyridin-4-yl)-4-methyl-3-oxo-3,4-dihydro-2H-benzo[b][1,4]oxazin-6-yl)amino)isoindoline-1,3-dione]",+++ (+++ = AUC ≥ 150)
11,11,"Cc1cc(-c2cc3c(cc2Nc2cccc4c2C(=O)N([C@H]2CCC(=O)NC2=O)C4=O)N(C)C(=O)CO3)ccn1 [Compound 18, (S)-2-(2,6-dioxopiperidin-3-yl)-4-((4-methyl-7-(2-methylpyridin-4-yl)-3-oxo-3,4-dihydro-2H-benzo[b][1,4]oxazin-6-yl)amino)isoindoline-1,3-dione]",+++ (+++ = AUC ≥ 150)
21,28,"Cc1cc(-c2cc3c(cc2Nc2cccc4c2C(=O)N(C2CCC(=O)NC2=O)C4=O)N(C)C(=S)CC3)ccn1 (stereo not drawn) [Compound 19, 2-(2,6-dioxopiperidin-3-yl)-4-((1-methyl-6-(2-methylpyridin-4-yl)-2-thioxo-1,2,3,4-tetrahydroquinolin-7-yl)amino)isoindoline-1,3-dione]",++ (++ = 100 ≤ AUC < 150)
12,14,"CC[C@@H]1Oc2cc(-c3ccnc(C)c3)c(Nc3cccc4c3C(=O)N([C@H]3CCC(=O)NC3=O)C4=O)cc2N(C)C1=O [Compound 20, 2-((S)-2,6-dioxopiperidin-3-yl)-4-(((S)-2-ethyl-4-methyl-7-(2-methylpyridin-4-yl)-3-oxo-3,4-dihydro-2H-benzo[b][1,4]oxazin-6-yl)amino)isoindoline-1,3-dione]",+ (+ = 15 ≤ AUC < 100)
12,17,"Cc1cc(-c2cc3c(cc2Nc2cccc4c2C(=O)N([C@H]2CCC(=O)NC2=O)C4=O)N(C)C(=O)O[C@@H]3C)ccn1 [Compound 21, 4-(((R)-1,4-dimethyl-6-(2-methylpyridin-4-yl)-2-oxo-1,4-dihydro-2H-benzo[d][1,3]oxazin-7-yl)amino)-2-((S)-2,6-dioxopiperidin-3-yl)isoindoline-1,3-dione]",+ (+ = 15 ≤ AUC < 100)
13,17,"Cc1cc(-c2cc3c(cc2Nc2cccc4c2C(=O)N([C@H]2CCC(=O)NC2=O)C4=O)N(C)C(=O)O[C@H]3C)ccn1 [Compound 22, 4-(((S)-1,4-dimethyl-6-(2-methylpyridin-4-yl)-2-oxo-1,4-dihydro-2H-benzo[d][1,3]oxazin-7-yl)amino)-2-((S)-2,6-dioxopiperidin-3-yl)isoindoline-1,3-dione]",+++ (+++ = AUC ≥ 150)
15,11,"Cc1cc(-c2cc3c(cc2Nc2cccc4c2C(=O)N([C@H]2CCC(=O)NC2=O)C4=O)N(C)C(=O)[C@H](C)O3)cc(C)n1 [Compound 23, 4-(((S)-7-(2,6-dimethylpyridin-4-yl)-2,4-dimethyl-3-oxo-3,4-dihydro-2H-benzo[b][1,4]oxazin-6-yl)amino)-2-((S)-2,6-dioxopiperidin-3-yl)isoindoline-1,3-dione]",++ (++ = 100 ≤ AUC < 150)
